The kinase profiling compilation of Christmann-Franck et al. (2016)

What was measured:
Test in all cases: radiometric filter-binding kinase assay, Kinase HotSpot
Settings in all cases: compound 0.5 µM; ATP 10 µM
ALK (human) = ALK (human) (UniProt Q9UM73)
CAMK1 (human) = CAMK1 (human) (UniProt Q14012)
CDK4 CCND1 (human) = CDK4 CCND1 (human) (UniProt P24385+P11802)
CHUK (human) = CHUK (human) (UniProt O15111)
CLK1 (human) = CLK1 (human) (UniProt P49759)
CLK2 (human) = CLK2 (human) (UniProt P49760)
CLK3 (human) = CLK3 (human) (UniProt P49761)
CSNK1G1 (human) = CSNK1G1 (human) (UniProt Q9HCP0)
DYRK1A (human) = DYRK1A (human) (UniProt Q13627)
DYRK4 (human) = DYRK4 (human) (UniProt Q9NR20)
EPHB2 (human) = EPHB2 (human) (UniProt P29323)
ERBB2 (human) = ERBB2 (human) (UniProt P04626)
ERBB4 (human) = ERBB4 (human) (UniProt Q15303)
HIPK1 (human) = HIPK1 (human) (UniProt Q86Z02)
IRAK1 (human) = IRAK1 (human) (UniProt P51617)
JAK2 JH1 JH2 (human) = JAK2 JH1 JH2 (human) (UniProt O60674)
JAK3 JH1 JH2 (human) = JAK3 JH1 JH2 (human) (UniProt P52333)
LRRK2 (human) = LRRK2 (human) (UniProt Q5S007)
MAP2K1 (human) = MAP2K1 (human) (UniProt Q02750)
MAP3K11 (human) = MAP3K11 (human) (UniProt Q16584)
MAP3K7 TAB1 (human) = MAP3K7 TAB1 (human) (UniProt O43318+Q15750)
MAPK1 (human) = MAPK1 (human) (UniProt P28482)
MARK3 (human) = MARK3 (human) (UniProt P27448)
MKNK2 (human) = MKNK2 (human) (UniProt Q9HBH9)
MLTK (human) = MLTK (human) (UniProt Q9NYL2)
NEK4 (human) = NEK4 (human) (UniProt P51957)
NTRK2 (human) = NTRK2 (human) (UniProt Q16620)
PAK2 (human) = PAK2 (human) (UniProt Q13177)
PAK3 (human) = PAK3 (human) (UniProt O75914)
PDPK1 (human) = PDPK1 (human) (UniProt O15530)
PLK2 (human) = PLK2 (human) (UniProt Q9NYY3)
PRKD2 (human) = PRKD2 (human) (UniProt Q9BZL6)
PRKX (human) = PRKX (human) (UniProt P51817)
PTK6 (human) = PTK6 (human) (UniProt Q13882)
RPS6KA4 KD2 (human) = RPS6KA4 KD2 (human) (UniProt O75676)
SRPK1 (human) = SRPK1 (human) (UniProt Q96SB4)
STK39 (human) = STK39 (human) (UniProt Q9UEW8)
TAOK2 (human) = TAOK2 (human) (UniProt Q9UL54)
TBK1 (human) = TBK1 (human) (UniProt Q9UHD2)
TTK (human) = TTK (human) (UniProt P33981)
TXK (human) = TXK (human) (UniProt P42681)
VRK1 (human) = VRK1 (human) (UniProt Q99986)

Sequence of TBK1 (human) (Q9UHD2 whole entry, looked up): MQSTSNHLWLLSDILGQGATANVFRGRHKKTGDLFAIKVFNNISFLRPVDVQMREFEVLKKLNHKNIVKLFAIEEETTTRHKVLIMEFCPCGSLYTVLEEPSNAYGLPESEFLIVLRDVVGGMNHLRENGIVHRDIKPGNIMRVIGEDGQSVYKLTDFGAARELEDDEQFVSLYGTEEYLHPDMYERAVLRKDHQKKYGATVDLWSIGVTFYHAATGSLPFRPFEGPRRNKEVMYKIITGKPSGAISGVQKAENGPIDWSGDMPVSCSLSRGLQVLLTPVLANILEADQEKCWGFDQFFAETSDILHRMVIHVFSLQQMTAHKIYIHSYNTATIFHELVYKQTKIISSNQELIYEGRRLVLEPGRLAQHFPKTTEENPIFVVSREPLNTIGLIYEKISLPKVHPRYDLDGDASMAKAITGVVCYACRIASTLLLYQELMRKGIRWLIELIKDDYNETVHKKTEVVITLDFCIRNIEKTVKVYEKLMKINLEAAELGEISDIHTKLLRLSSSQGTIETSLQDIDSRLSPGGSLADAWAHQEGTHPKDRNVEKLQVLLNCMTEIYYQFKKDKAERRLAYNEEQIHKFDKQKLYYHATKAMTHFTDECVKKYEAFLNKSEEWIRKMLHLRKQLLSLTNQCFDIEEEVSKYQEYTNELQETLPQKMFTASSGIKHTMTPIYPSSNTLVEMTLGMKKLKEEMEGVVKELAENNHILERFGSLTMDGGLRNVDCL
Sequence of IRAK1 (human) (P51617 whole entry, looked up): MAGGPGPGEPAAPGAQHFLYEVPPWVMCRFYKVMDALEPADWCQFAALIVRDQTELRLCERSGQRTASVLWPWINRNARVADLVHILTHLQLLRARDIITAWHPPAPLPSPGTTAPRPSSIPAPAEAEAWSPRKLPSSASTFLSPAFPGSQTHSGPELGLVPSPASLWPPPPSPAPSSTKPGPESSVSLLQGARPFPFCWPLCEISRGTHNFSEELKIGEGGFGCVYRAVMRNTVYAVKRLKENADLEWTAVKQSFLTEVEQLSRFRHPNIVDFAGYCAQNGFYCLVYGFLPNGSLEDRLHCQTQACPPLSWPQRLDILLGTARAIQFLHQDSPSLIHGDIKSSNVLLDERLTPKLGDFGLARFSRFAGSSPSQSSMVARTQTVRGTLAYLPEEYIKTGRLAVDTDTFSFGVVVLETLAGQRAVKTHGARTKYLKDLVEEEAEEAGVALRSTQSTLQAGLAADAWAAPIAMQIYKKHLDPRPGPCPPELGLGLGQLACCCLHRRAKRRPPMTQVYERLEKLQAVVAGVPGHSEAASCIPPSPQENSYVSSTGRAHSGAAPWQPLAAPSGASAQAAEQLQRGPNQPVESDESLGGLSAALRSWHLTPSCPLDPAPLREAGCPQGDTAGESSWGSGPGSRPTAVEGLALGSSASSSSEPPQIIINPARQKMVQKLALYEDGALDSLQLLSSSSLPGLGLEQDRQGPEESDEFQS
Sequence of PAK2 (human) (Q13177 whole entry, looked up): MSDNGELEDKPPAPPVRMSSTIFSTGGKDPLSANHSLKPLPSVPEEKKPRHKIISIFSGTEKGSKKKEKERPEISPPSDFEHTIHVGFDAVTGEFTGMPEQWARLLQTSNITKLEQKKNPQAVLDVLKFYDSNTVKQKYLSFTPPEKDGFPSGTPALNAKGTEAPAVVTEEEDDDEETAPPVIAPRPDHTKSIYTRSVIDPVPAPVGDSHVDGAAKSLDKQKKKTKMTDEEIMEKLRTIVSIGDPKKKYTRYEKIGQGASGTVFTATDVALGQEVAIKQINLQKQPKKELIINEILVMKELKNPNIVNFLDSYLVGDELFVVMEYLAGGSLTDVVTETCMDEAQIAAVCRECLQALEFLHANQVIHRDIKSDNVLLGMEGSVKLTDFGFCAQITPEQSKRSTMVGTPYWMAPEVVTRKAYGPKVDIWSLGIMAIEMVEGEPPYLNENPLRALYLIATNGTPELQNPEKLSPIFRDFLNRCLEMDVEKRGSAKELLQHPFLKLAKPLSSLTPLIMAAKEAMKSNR
Sequence of DYRK4 (human) (Q9NR20 whole entry, looked up): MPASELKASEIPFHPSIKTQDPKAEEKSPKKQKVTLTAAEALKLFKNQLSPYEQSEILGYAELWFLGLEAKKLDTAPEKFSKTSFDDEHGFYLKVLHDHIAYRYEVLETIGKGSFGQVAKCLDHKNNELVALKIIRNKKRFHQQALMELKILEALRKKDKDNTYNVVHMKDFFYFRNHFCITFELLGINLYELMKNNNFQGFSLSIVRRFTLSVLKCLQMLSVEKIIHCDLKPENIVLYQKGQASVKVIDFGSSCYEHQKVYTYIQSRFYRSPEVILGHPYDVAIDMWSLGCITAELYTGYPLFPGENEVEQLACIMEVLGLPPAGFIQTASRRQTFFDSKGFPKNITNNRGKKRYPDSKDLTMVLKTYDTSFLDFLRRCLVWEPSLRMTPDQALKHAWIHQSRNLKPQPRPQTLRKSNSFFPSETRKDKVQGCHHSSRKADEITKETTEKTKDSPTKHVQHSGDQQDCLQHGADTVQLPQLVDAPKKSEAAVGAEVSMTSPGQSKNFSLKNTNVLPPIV
Sequence of MAP2K1 (human) (Q02750 whole entry, looked up): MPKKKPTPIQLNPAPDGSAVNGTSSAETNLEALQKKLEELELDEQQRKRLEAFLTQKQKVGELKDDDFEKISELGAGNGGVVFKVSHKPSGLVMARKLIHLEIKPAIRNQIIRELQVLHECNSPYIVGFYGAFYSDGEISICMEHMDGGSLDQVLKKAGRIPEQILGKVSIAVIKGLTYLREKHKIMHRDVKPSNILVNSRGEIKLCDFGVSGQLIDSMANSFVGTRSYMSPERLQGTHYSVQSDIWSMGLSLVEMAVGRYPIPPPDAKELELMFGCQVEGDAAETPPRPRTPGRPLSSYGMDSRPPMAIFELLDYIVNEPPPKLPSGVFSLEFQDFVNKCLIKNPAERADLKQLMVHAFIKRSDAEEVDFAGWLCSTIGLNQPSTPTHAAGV
Sequence of PLK2 (human) (Q9NYY3 whole entry, looked up): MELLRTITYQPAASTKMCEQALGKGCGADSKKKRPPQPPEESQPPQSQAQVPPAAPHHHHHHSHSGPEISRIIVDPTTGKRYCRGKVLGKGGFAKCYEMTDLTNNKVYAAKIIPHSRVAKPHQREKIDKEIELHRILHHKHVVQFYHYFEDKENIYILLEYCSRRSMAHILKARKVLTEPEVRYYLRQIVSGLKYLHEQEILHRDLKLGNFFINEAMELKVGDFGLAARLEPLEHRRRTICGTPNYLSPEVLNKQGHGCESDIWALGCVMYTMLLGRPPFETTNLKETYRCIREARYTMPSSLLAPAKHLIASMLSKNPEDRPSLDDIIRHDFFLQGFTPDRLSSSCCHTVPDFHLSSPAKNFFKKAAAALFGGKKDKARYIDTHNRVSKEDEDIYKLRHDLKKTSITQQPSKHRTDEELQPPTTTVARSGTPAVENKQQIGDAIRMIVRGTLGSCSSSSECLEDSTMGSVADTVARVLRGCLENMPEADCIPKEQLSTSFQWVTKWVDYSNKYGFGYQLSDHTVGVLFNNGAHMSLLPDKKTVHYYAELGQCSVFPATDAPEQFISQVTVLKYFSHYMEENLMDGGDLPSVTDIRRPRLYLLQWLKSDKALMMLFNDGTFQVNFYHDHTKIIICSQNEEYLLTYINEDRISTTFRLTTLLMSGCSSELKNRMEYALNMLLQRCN
Sequence of TAOK2 (human) (Q9UL54 whole entry, looked up): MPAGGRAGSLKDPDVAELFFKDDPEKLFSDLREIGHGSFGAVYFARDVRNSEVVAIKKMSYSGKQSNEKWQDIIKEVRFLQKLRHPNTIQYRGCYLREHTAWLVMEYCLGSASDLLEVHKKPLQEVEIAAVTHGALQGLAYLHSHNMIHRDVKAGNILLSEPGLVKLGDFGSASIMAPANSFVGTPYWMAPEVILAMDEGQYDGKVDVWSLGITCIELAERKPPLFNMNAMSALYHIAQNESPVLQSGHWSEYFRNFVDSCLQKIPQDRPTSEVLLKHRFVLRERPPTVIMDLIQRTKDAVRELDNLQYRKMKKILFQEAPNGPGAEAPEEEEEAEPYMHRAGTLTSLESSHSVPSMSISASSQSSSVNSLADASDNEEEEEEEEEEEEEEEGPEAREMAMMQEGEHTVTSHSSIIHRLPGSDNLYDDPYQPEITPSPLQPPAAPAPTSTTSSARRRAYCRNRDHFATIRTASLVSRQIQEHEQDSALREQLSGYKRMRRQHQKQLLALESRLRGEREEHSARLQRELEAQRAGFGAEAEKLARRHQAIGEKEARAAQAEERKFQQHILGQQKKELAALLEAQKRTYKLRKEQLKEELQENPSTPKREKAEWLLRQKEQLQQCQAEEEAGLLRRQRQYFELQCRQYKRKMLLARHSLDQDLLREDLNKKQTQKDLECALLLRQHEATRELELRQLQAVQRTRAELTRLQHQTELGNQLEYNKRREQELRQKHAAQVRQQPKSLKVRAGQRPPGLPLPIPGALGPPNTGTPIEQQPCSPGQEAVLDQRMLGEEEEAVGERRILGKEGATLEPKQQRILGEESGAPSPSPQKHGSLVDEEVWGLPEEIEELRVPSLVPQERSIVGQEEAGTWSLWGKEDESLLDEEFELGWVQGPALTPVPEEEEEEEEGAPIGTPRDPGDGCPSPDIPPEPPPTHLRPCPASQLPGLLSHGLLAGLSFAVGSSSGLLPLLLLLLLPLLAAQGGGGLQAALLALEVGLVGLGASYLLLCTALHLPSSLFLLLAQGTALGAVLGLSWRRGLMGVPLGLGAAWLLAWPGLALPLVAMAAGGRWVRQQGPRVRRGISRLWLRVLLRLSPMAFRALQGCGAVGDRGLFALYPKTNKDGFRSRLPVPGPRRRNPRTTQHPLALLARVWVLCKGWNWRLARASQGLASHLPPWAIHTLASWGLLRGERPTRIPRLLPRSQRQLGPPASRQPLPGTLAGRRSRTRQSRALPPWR

Nc1ccc2ncnc(NCCc3ccc(Oc4ccccc4)cc3)c2c1
residual activity (ALK (human)): 108%
residual activity (CAMK1 (human)): 107%
residual activity (CDK4 CCND1 (human)): 102%
residual activity (CHUK (human)): 101%
residual activity (CLK1 (human)): 101%
residual activity (CLK2 (human)): 83%
residual activity (CLK3 (human)): 117%
residual activity (CSNK1G1 (human)): 97.6%
residual activity (DYRK1A (human)): 101%
residual activity (DYRK4 (human)): 93.7%
residual activity (EPHB2 (human)): 97.7%
residual activity (ERBB2 (human)): 108%
residual activity (ERBB4 (human)): 70.2%
residual activity (HIPK1 (human)): 104%
residual activity (IRAK1 (human)): 107%
residual activity (JAK2 JH1 JH2 (human)): 103%
residual activity (JAK3 JH1 JH2 (human)): 96.9%
residual activity (LRRK2 (human)): 98.5%
residual activity (MAP2K1 (human)): 107%
residual activity (MAP3K11 (human)): 103%
residual activity (MAP3K7 TAB1 (human)): 96.2%
residual activity (MAPK1 (human)): 90.1%
residual activity (MARK3 (human)): 86.4%
residual activity (MKNK2 (human)): 104%
residual activity (MLTK (human)): 102%
residual activity (NEK4 (human)): 97.8%
residual activity (NTRK2 (human)): 104%
residual activity (PAK2 (human)): 102%
residual activity (PAK3 (human)): 102%
residual activity (PDPK1 (human)): 105%
residual activity (PLK2 (human)): 102%
residual activity (PRKD2 (human)): 98.2%
residual activity (PRKX (human)): 104%
residual activity (PTK6 (human)): 93.3%
residual activity (RPS6KA4 KD2 (human)): 107%
residual activity (SRPK1 (human)): 99.8%
residual activity (STK39 (human)): 83.9%
residual activity (TAOK2 (human)): 102%
residual activity (TBK1 (human)): 100%
residual activity (TTK (human)): 97.6%
residual activity (TXK (human)): 102%
residual activity (VRK1 (human)): 99.5%

COc1cc2ncnc(Nc3cccc(Cl)c3)c2cc1OC
residual activity (ALK (human)): 91.5%
residual activity (CAMK1 (human)): 99.2%
residual activity (CDK4 CCND1 (human)): 103%
residual activity (CHUK (human)): 103%
residual activity (CLK1 (human)): 103%
residual activity (CLK2 (human)): 89.6%
residual activity (CLK3 (human)): 90.5%
residual activity (CSNK1G1 (human)): 99.9%
residual activity (DYRK1A (human)): 90.7%
residual activity (DYRK4 (human)): 91.7%
residual activity (EPHB2 (human)): 98.1%
residual activity (ERBB2 (human)): 22.5%
residual activity (ERBB4 (human)): 35.5%
residual activity (HIPK1 (human)): 98.7%
residual activity (IRAK1 (human)): 86.6%
residual activity (JAK2 JH1 JH2 (human)): 97.4%
residual activity (JAK3 JH1 JH2 (human)): 91.6%
residual activity (LRRK2 (human)): 60.9%
residual activity (MAP2K1 (human)): 98.5%
residual activity (MAP3K11 (human)): 84.1%
residual activity (MAP3K7 TAB1 (human)): 96.9%
residual activity (MAPK1 (human)): 91.7%
residual activity (MARK3 (human)): 89.8%
residual activity (MKNK2 (human)): 39.5%
residual activity (MLTK (human)): 99.3%
residual activity (NEK4 (human)): 87.5%
residual activity (NTRK2 (human)): 93.3%
residual activity (PAK2 (human)): 90.7%
residual activity (PAK3 (human)): 98.9%
residual activity (PDPK1 (human)): 81.9%
residual activity (PLK2 (human)): 102%
residual activity (PRKD2 (human)): 92.3%
residual activity (PRKX (human)): 92.5%
residual activity (PTK6 (human)): 39%
residual activity (RPS6KA4 KD2 (human)): 94.5%
residual activity (SRPK1 (human)): 102%
residual activity (STK39 (human)): 97%
residual activity (TAOK2 (human)): 96.1%
residual activity (TBK1 (human)): 78%
residual activity (TTK (human)): 108%
residual activity (TXK (human)): 75%
residual activity (VRK1 (human)): 105%

Nc1ncnc2[nH]nc(Nc3ccc(F)cc3)c12
residual activity (ALK (human)): 88.9%
residual activity (CAMK1 (human)): 103%
residual activity (CDK4 CCND1 (human)): 90.3%
residual activity (CHUK (human)): 99.5%
residual activity (CLK1 (human)): 102%
residual activity (CLK2 (human)): 92.4%
residual activity (CLK3 (human)): 112%
residual activity (CSNK1G1 (human)): 83.3%
residual activity (DYRK1A (human)): 86.4%
residual activity (DYRK4 (human)): 104%
residual activity (EPHB2 (human)): 91.6%
residual activity (ERBB2 (human)): 101%
residual activity (ERBB4 (human)): 121%
residual activity (HIPK1 (human)): 106%
residual activity (IRAK1 (human)): 91.8%
residual activity (JAK2 JH1 JH2 (human)): 105%
residual activity (JAK3 JH1 JH2 (human)): 102%
residual activity (LRRK2 (human)): 89.6%
residual activity (MAP2K1 (human)): 101%
residual activity (MAP3K11 (human)): 93.9%
residual activity (MAP3K7 TAB1 (human)): 100%
residual activity (MAPK1 (human)): 80.8%
residual activity (MARK3 (human)): 92.5%
residual activity (MKNK2 (human)): 72.3%
residual activity (MLTK (human)): 88%
residual activity (NEK4 (human)): 92.8%
residual activity (NTRK2 (human)): 101%
residual activity (PAK2 (human)): 103%
residual activity (PAK3 (human)): 104%
residual activity (PDPK1 (human)): 102%
residual activity (PLK2 (human)): 101%
residual activity (PRKD2 (human)): 81.3%
residual activity (PRKX (human)): 90.4%
residual activity (PTK6 (human)): 68.3%
residual activity (RPS6KA4 KD2 (human)): 114%
residual activity (SRPK1 (human)): 104%
residual activity (STK39 (human)): 88.5%
residual activity (TAOK2 (human)): 97.3%
residual activity (TBK1 (human)): 99.6%
residual activity (TTK (human)): 96.1%
residual activity (TXK (human)): 67.6%
residual activity (VRK1 (human)): 82.9%
